From the RepoRT retention time repository

assay: HILIC, HILICON iHILIC-(P) Classic, HILIC, PEEK, 50 × 2.1 mm, 5 µm, 30 °C, 0.12 mL/min, estimated dead time 0.92 min; A: water + 20 mM ammonium carbonate; B: acetonitrile; gradient (min/%B) 0/80 1/80 21/20 21.5/20 26.5/20 27.5/80 35/80; conditions: stereoisomer not certain

Structure (SMILES) | LC retention time [min]
Nc1ncnc2c1ncn2C1OC(COP(=O)(O)OP(=O)(O)O)C(O)C1O (configuration not stated) [ADP] | 12.5
Nc1ncnc2c1ncn2C1OC(COP(=O)(O)O)C(O)C1O (configuration not stated) [AMP] | 8.62
Nc1ncnc2c1ncn2C1OC(COP(=O)(O)OP(=O)(O)OP(=O)(O)O)C(O)C1O (configuration not stated) [ATP] | 13.9
CC(=O)SCCNC(=O)CCNC(=O)C(O)C(C)(C)COP(=O)(O)OP(=O)(O)OCC1OC(n2cnc3c(N)ncnc32)C(O)C1OP(=O)(O)O (configuration not stated) [Acetyl-CoA] | 8.59
Nc1ncnc2nc[nH]c12 [Adenine] | 3.84
Nc1ncnc2c1ncn2C1OC(CO)C(O)C1O (configuration not stated) [Adenosine] | 3.76
O=C1OC(C(O)CO)C(O)=C1O (configuration not stated) [Ascorbic Acid] | 9.51
NC(=O)CC(N)C(=O)O (configuration not stated) [Asparagine] | 11.1
O=C(O)CCCCC1SCC2NC(=O)NC21 (configuration not stated) [Biotin] | 3.76
Nc1ccn(C2OC(COP(=O)(O)OP(=O)(O)O)C(O)C2O)c(=O)n1 (configuration not stated) [CDP] | 13.2
Nc1ccn(C2OC(COP(=O)(O)O)C(O)C2O)c(=O)n1 (configuration not stated) [CMP] | 10.8
O=C(O)CC(O)(CC(=O)O)C(=O)O [Citric acid] | 16.5
NC(CSSCC(N)C(=O)O)C(=O)O (configuration not stated) [Cystine] | 11.8
Nc1ccn(C2OC(CO)C(O)C2O)c(=O)n1 (configuration not stated) [Cytidine] | 6.28
Nc1nc2ncc(CNc3ccc(C(=O)NC(CCC(=O)O)C(=O)O)cc3)nc2c(=O)[nH]1 (configuration not stated) [Folic Acid] | 14.4
Nc1nc2c(ncn2C2OC(COP(=O)(O)OP(=O)(O)O)C(O)C2O)c(=O)[nH]1 (configuration not stated) [GDP] | 14.8
Nc1nc2c(ncn2C2OC(COP(=O)(O)O)C(O)C2O)c(=O)[nH]1 (configuration not stated) [GMP] | 13.9
NC(CCC(=O)NC(CS)C(=O)NCC(=O)O)C(=O)O (configuration not stated) [GSH] | 8.95

Structure (SMILES) | LC retention time [min]
NC(CCC(=O)NC(CSSCC(NC(=O)CCC(N)C(=O)O)C(=O)NCC(=O)O)C(=O)NCC(=O)O)C(=O)O (configuration not stated) [GSSG] | 15.6
Nc1nc2c(ncn2C2OC(COP(=O)(O)OP(=O)(O)OP(=O)(O)O)C(O)C2O)c(=O)[nH]1 (configuration not stated) [GTP] | 16.9
NC(CCC(=O)O)C(=O)O (configuration not stated) [Glutamic acid] | 10.2
NC(=O)CCC(N)C(=O)O (configuration not stated) [Glutamine] | 8.86
O=P(O)(O)OCC(O)CO (configuration not stated) [Glycerol-3-phosphate] | 10.9
Nc1nc2c(ncn2C2OC(CO)C(O)C2O)c(=O)[nH]1 (configuration not stated) [Guanosine] | 7.27
O=C(O)CC(C(=O)O)C(O)C(=O)O (configuration not stated) [Isocitric acid] | 15.8
CCC(C)C(N)C(=O)O (configuration not stated) [Isoleucine] | 6.75
CC(O)C(=O)O (configuration not stated) [Lactic Acid] | 3.22
CC(C)CC(N)C(=O)O (configuration not stated) [Leucine] | 5.63
NCCCCC(N)C(=O)O (configuration not stated) [Lysine] | 18.4
O=C(O)CC(O)C(=O)O (configuration not stated) [Malic Acid] | 13
O=C(O)CC(=O)O [Malonic Acid] | 9.63
CSCCC(N)C(=O)O (configuration not stated) [Methionine] | 6.99
CC(=O)NC(CC(=O)O)C(=O)O (configuration not stated) [N-Acetylaspartic acid] | 9.49
NC(=O)C1=CN(C2OC(COP(=O)(O)OP(=O)(O)OCC3OC(n4cnc5c(N)ncnc54)C(O)C3O)C(O)C2O)C=CC1 (configuration not stated) [NADH] | 9.95
NC(=O)C1=CN(C2OC(COP(=O)(O)OP(=O)(O)OCC3OC(n4cnc5c(N)ncnc54)C(OP(=O)(O)O)C3O)C(O)C2O)C=CC1 (configuration not stated) [NADPH] | 16.3
NC(=O)c1ccc[n+](C2OC(COP(=O)(O)OP(=O)(O)OCC3OC(n4cnc5c(N)ncnc54)C(OP(=O)(O)O)C3O)C(O)C2O)c1 (configuration not stated) [NADP] | 13.4

Continued, values first:

LC retention time [min] | Structure (SMILES)
9.43 | NC(=O)c1ccc[n+](C2OC(COP(=O)(O)OP(=O)(O)OCC3OC(n4cnc5c(N)ncnc54)C(O)C3O)C(O)C2O)c1 (configuration not stated) [NAD]
9.99 | NC(=O)c1ccc[n+](C2OC(COP(=O)([O-])O)C(O)C2O)c1 (configuration not stated) [NMN]
2.1 | O=C(O)c1cccnc1 [Nicotinic acid]
17.7 | NCCCC(N)C(=O)O (configuration not stated) [Ornithine]
13.6 | C=C(OP(=O)(O)O)C(=O)O [PEP]
5.37 | NC(Cc1ccccc1)C(=O)O (configuration not stated) [Phenylalanine]
13.6 | O=C(O)C(CO)OP(=O)(O)O (configuration not stated) [Phosphoglyceric acid A]
7.48 | O=C(O)C1CCCN1 (configuration not stated) [Proline]
6.75 | O=C(O)C1(O)CC(O)C(O)C(O)C1 (configuration not stated) [Quinic Acid]
9.56 | NC(CO)C(=O)O (configuration not stated) [Serine]
12.1 | O=C(O)CCC(=O)O [Succinic Acid]
12.7 | Cc1ncc(C[n+]2csc(CCO)c2C)c(N)n1 [Thiamine]
8.47 | CC(O)C(N)C(=O)O (configuration not stated) [Threonine]
11.5 | O=C(CO)COP(=O)(O)O [Triose phosphate]
6.31 | NC(Cc1c[nH]c2ccccc12)C(=O)O (configuration not stated) [Tryptophan]
8.15 | NC(Cc1ccc(O)cc1)C(=O)O (configuration not stated) [Tyrosine]
11.9 | CC(=O)NC1C(OP(=O)(O)OP(=O)(O)OCC2OC(n3ccc(=O)[nH]c3=O)C(O)C2O)OC(CO)C(O)C1O (configuration not stated) [UDP-GlcNAc]
12.3 | O=c1ccn(C2OC(COP(=O)(O)OP(=O)(O)O)C(O)C2O)c(=O)[nH]1 (configuration not stated) [UDP]
9.59 | O=c1ccn(C2OC(COP(=O)(O)O)C(O)C2O)c(=O)[nH]1 (configuration not stated) [UMP]
14.1 | O=c1ccn(C2OC(COP(=O)(O)OP(=O)(O)OP(=O)(O)O)C(O)C2O)c(=O)[nH]1 (configuration not stated) [UTP]
6.97 | CC(C)C(N)C(=O)O (configuration not stated) [Valine]
